Data published in patent EP4806435A1, “DIHYDROCHROMENE-DERIVATIVE-CONTAINING THERAPEUTIC AGENT FOR CANCER” (Sumitomo Pharma Co., Ltd., priority 2023, dated 2025).
Read-outs that look alike come from different tables or passages of the source.

Test: Phase 1 clinical trial: plasma pharmacokinetics
Assay type: in vivo, human
Conditions: human, plasma, oral; for half-life: read-out: Effective T1/2 (converted); for AUC: tau = 24 hours
Procedure: Summary statistics based on preliminary data were obtained for the pharmacokinetics of Compound 1 in patients receiving once-daily doses ranging from 20 mg to 240 mg (Table 5). The mean plasma concentration-time curves of Compound 1 in the once-daily dose groups ranging from 20 mg to 240 mg are shown in Figure 11. In this study, one cycle consists of 28 days, and Cycle 1 Day 1 refers to Day 1 of the first cycle. […] Accumulation was observed after repeated administration. […] Based on these accumulation ratios, the half-life of Compound 1 was estimated to be approximately 4 days. Based on the currently available data, plasma concentrations are considered to have reached steady state by Day 15.
Summary statistics based on preliminary data were obtained for the pharmacokinetics of Compound 1 in patients in the 20 mg QD, 40 mg QD, 80 mg QD, 120 mg QD, 180 mg QD, 240 mg QD, 360 mg QD, and 480 mg daily (240 mg BID) dose groups (Table 6). The mean plasma concentration-time curves of Compound 1 in the 20 mg QD to 480 mg daily (240 mg BID) dose groups are shown in Figure 12 (in Figure 12, Compound 1 is denoted as "DSP-0390"). In this study, one cycle consists of 28 days, and Cycle 1 Day 1 refers to Day 1 of the first cycle. […] The median Tmax ranged from 2 to 8 hours. Accumulation was observed after repeated administration, and assuming linearity based on the observed accumulation ratios, the estimated elimination half-life was considered to be on the order of several days (approximately 1 to 6 days) (data cut-off: March 2024).

**Q.** Which results are given for `CC1(C)Oc2cc(Cl)ccc2[C@@H]2OCC3(CCN(CCn4ccnc4)CC3)C[C@H]21` [Compound 1, (4'aR,10'bR)-8'-chloro-1-[2-(1H-imidazol-1-yl)ethyl]-5',5'-dimethyl-4'a,10'b-dihydro-2'H,4'H,5'H-spiro[piperidine-4,3'-pyrano[3,2-c][1]benzopyran] diphosphate]?
**A.** Cmax (80 mg, Cycle 2 Day 1, 80 mg, QD, cut-off April 2023, read-out: Cmax (median)): 61 ng/mL; Tmax (80 mg, Cycle 2 Day 1, 80 mg, QD, cut-off April 2023, read-out: Tmax (mean)): 8 h; Tmax (80 mg, Cycle 2 Day 1, 80 mg, QD, cut-off April 2023, read-out: Tmax (median)): 8 h; half-life (120 mg, 120 mg QD, cut-off March 2024): 67.2 h; Cmax (120 mg, Cycle 1, Day 1, 120 mg QD, cut-off March 2024, read-out: Cmax): 44.2 ng/mL; Tmax (120 mg, Cycle 1, Day 1, 120 mg QD, cut-off March 2024, read-out: Tmax [a] median value): 4 h; AUC (120 mg, Cycle 1, Day 1, 120 mg QD, cut-off March 2024, read-out: AUCtau [b]): 577 ng·h/mL; AUC(0-t) (120 mg, Cycle 1 Day 1, 120 mg, QD, cut-off April 2023, read-out: AUC0-24 (geometric mean)): 544 ng·h/mL; AUC(0-t) (120 mg, Cycle 1 Day 1, 120 mg, QD, cut-off April 2023, read-out: AUC0-24 (mean)): 583 ng·h/mL; AUC(0-t) (120 mg, Cycle 1 Day 1, 120 mg, QD, cut-off April 2023, read-out: AUC0-24 (median)): 605 ng·h/mL; Cmax (120 mg, Cycle 1 Day 1, 120 mg, QD, cut-off April 2023, read-out: Cmax (geometric mean)): 40 ng/mL; Cmax (120 mg, Cycle 1 Day 1, 120 mg, QD, cut-off April 2023, read-out: Cmax (mean)): 44 ng/mL; Cmax (120 mg, Cycle 1 Day 1, 120 mg, QD, cut-off April 2023, read-out: Cmax (median)): 45 ng/mL; Tmax (120 mg, Cycle 1 Day 1, 120 mg, QD, cut-off April 2023, read-out: Tmax (mean)): 4 h; Tmax (120 mg, Cycle 1 Day 1, 120 mg, QD, cut-off April 2023, read-out: Tmax (median)): 4 h; Cmax (120 mg, Cycle 2, Day 1, 120 mg QD, cut-off March 2024, read-out: Cmax,ss): 156 ng/mL; Tmax (120 mg, Cycle 2, Day 1, 120 mg QD, cut-off March 2024, read-out: Tmax,ss [a] median value): 5 h; AUC (120 mg, Cycle 2, Day 1, 120 mg QD, cut-off March 2024, read-out: AUCtau,ss [b]): 2610 ng·h/mL; AUC(0-t) (120 mg, Cycle 2 Day 1, 120 mg, QD, cut-off April 2023, read-out: AUC0-24 (geometric mean)): 2420 ng·h/mL; AUC(0-t) (120 mg, Cycle 2 Day 1, 120 mg, QD, cut-off April 2023, read-out: AUC0-24 (mean)): 2630 ng·h/mL; AUC(0-t) (120 mg, Cycle 2 Day 1, 120 mg, QD, cut-off April 2023, read-out: AUC0-24 (median)): 2330 ng·h/mL; Cmax (120 mg, Cycle 2 Day 1, 120 mg, QD, cut-off April 2023, read-out: Cmax (geometric mean)): 140 ng/mL; Cmax (120 mg, Cycle 2 Day 1, 120 mg, QD, cut-off April 2023, read-out: Cmax (mean)): 156 ng/mL; Cmax (120 mg, Cycle 2 Day 1, 120 mg, QD, cut-off April 2023, read-out: Cmax (median)): 138 ng/mL; Tmax (120 mg, Cycle 2 Day 1, 120 mg, QD, cut-off April 2023, read-out: Tmax (mean)): 6 h; Tmax (120 mg, Cycle 2 Day 1, 120 mg, QD, cut-off April 2023, read-out: Tmax (median)): 5 h; half-life (180 mg, 180 mg QD, cut-off March 2024): 50.4 h; Cmax (180 mg, Cycle 1, Day 1, 180 mg QD, cut-off March 2024, read-out: Cmax): 114 ng/mL; Tmax (180 mg, Cycle 1, Day 1, 180 mg QD, cut-off March 2024, read-out: Tmax [a] median value): 6 h; AUC (180 mg, Cycle 1, Day 1, 180 mg QD, cut-off March 2024, read-out: AUCtau [b]): 1370 ng·h/mL; AUC(0-t) (180 mg, Cycle 1 Day 1, 180 mg, QD, cut-off April 2023, read-out: AUC0-24 (geometric mean)): 1060 ng·h/mL; AUC(0-t) (180 mg, Cycle 1 Day 1, 180 mg, QD, cut-off April 2023, read-out: AUC0-24 (mean)): 1420 ng·h/mL; AUC(0-t) (180 mg, Cycle 1 Day 1, 180 mg, QD, cut-off April 2023, read-out: AUC0-24 (median)): 1840 ng·h/mL; Cmax (180 mg, Cycle 1 Day 1, 180 mg, QD, cut-off April 2023, read-out: Cmax (geometric mean)): 73 ng/mL; Cmax (180 mg, Cycle 1 Day 1, 180 mg, QD, cut-off April 2023, read-out: Cmax (mean)): 101 ng/mL; Cmax (180 mg, Cycle 1 Day 1, 180 mg, QD, cut-off April 2023, read-out: Cmax (median)): 140 ng/mL; Tmax (180 mg, Cycle 1 Day 1, 180 mg, QD, cut-off April 2023, read-out: Tmax (mean)): 11 h; Tmax (180 mg, Cycle 1 Day 1, 180 mg, QD, cut-off April 2023, read-out: Tmax (median)): 6 h; Cmax (180 mg, Cycle 2, Day 1, 180 mg QD, cut-off March 2024, read-out: Cmax,ss): 215 ng/mL; Tmax (180 mg, Cycle 2, Day 1, 180 mg QD, cut-off March 2024, read-out: Tmax,ss [a] median value): 6 h; AUC (180 mg, Cycle 2, Day 1, 180 mg QD, n=3, cut-off March 2024, read-out: AUCtau,ss [b]): 4860 ng·h/mL; AUC(0-t) (180 mg, Cycle 2 Day 1, 180 mg, QD, N=1, cut-off April 2023, read-out: AUC0-24 (geometric mean)): 7260 ng·h/mL; AUC(0-t) (180 mg, Cycle 2 Day 1, 180 mg, QD, N=1, cut-off April 2023, read-out: AUC0-24 (mean)): 7260 ng·h/mL; AUC(0-t) (180 mg, Cycle 2 Day 1, 180 mg, QD, N=1, cut-off April 2023, read-out: AUC0-24 (median)): 7260 ng·h/mL; Cmax (180 mg, Cycle 2 Day 1, 180 mg, QD, cut-off April 2023, read-out: Cmax (geometric mean)): 281 ng/mL; Cmax (180 mg, Cycle 2 Day 1, 180 mg, QD, cut-off April 2023, read-out: Cmax (mean)): 287 ng/mL; Cmax (180 mg, Cycle 2 Day 1, 180 mg, QD, cut-off April 2023, read-out: Cmax (median)): 287 ng/mL; Tmax (180 mg, Cycle 2 Day 1, 180 mg, QD, cut-off April 2023, read-out: Tmax (mean)): 7 h
